Experimental data as given in ChEMBL document CHEMBL3639236, “Nitrogen containing morphinan derivatives and the use thereof” (2015).

Key:
[1] = target: Kappa-type opioid receptor (Homo sapiens, UniProt P41145); experiment: (§1) Radioligand Dose-Displacement Binding Assay: Radioligand dose-displacement binding assays for u-opioid receptors used 0.3 nM [3H]-diprenorphine (Perkin Elmer, Shelton, Conn.), with […] in a final volume of 500 ul binding buffer (10 mM MgCl2, 1 mM EDTA, 5% DMSO, 50 mM HEPES, pH 7.4). Reactions were carried out in the absence or presence of increasing concentrations of unlabeled naloxone. All reactions were conducted in 96-deep well polypropylene plates for 2 hours at room temperature. Binding reactions were terminated by rapid filtration onto 96-well Unifilter GF/C filter plates (Perkin Elmer, Shelton, Conn.), presoaked in 0.5% polyethylenimine using a 96-well tissue harvester (Perkin Elmer, Shelton, Conn.) followed by performing three filtration washes with 500 ul of ice-cold binding buffer. Filter plates were subsequently dried at 50 C. for 2-3 hours. BetaScint scintillation cocktail (Perkin Elmer, Shelton, Conn.) was added (50 ul/well), and plates were counted using a Packard Top-Counter.
Mu-type opioid receptor = Mu-type opioid receptor (Homo sapiens, UniProt P35372); experiment: as §1
Chain of Mu-type opioid receptor (P35372 whole entry): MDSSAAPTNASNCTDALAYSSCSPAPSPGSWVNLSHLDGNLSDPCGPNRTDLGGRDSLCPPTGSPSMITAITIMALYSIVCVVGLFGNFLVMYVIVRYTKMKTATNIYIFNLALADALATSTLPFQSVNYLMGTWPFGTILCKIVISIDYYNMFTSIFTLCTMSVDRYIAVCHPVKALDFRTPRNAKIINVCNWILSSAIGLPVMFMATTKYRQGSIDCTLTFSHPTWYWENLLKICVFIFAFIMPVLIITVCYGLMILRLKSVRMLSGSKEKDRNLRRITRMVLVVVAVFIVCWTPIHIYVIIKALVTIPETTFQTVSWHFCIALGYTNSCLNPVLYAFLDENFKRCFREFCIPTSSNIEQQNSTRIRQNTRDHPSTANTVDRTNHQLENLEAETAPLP

Chain of Kappa-type opioid receptor (P41145 whole entry): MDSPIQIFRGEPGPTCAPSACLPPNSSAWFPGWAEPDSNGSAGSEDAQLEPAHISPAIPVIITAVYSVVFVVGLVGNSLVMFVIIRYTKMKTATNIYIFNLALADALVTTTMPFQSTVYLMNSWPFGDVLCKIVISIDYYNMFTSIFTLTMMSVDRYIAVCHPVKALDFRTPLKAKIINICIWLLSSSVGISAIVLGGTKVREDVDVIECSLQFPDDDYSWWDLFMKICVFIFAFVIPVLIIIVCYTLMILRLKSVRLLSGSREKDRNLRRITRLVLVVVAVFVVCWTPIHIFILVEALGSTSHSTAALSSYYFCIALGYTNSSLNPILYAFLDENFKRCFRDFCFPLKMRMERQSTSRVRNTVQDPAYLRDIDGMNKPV

Row | Compound | Ki [1] [nM] | Ki (Mu-type opioid receptor) [nM]
1 | COc1ccc(CN2C[C@H]3[C@H]4Cc5ccc(OC)cc5[C@@]3(CCN4CC3CC3)CC2=O)cc1 | 411 | 
2 | COc1ccc(CN2C=C3[C@H]4Cc5ccc(OC)cc5[C@@]3(CCN4CC3CC3)CC2=O)cc1 | 13.1 | 218
